Measured values from patent US10729130B2, “Nematicidal compositions and methods of using them” (Eden Research plc, priority 2004, dated 2020).

Columns and labels:
root-knot nematodes = assay: Effect of pH on the nematicidal activity of citral (fresh and one-day old solutions); type: in vivo, root-knot nematode
Description: Test solutions of these three concentrations were prepared at different pHs by adjusting the pH with HCl or NaOH to pH 4, 7 and 10.
One batch of test solutions was used immediately and another was left for 24 hours before use. The method of administration to the nematodes and counting the kill rate is the same as for previous protocols.
The results are shown below in Tables 11 and 12.

[1] = Loading of terpenes (L-carvone) into SAF Mannan in minimal water (free terpene, flow); type: physicochemical; set-up: key to Free Terpene: +: “free terpene” refers to the visible presence of terpene in the centrifuged reaction mixture; −: The absence of free terpene indicates complete absorption of the terpene by the particles; key to Flow: Sl = slight; conditions: emulsion 4.64 g; for Flow: flow in inverted tubes over 15 minutes
Description: The following protocol was carried out to evaluate the possibility that terpene loading and encapsulation into YP could be carried out at a very high Yeast Particles (YP) solids level to allow for direct extrusion of the loaded formulation into a fluidised bed drier. The minimal amount of water to completely hydrate the SAF Mannan™ particles was determined to be 3.53 g water per g solids. This defines the hydrodynamic volume (HV) or water absorptive capacity of the particles. At this level of water the hydrated particles have a consistency of a stiff dough which is thixotropic, i.e. shear thinning like mayonnaise. Addition of water up to 40% above the HV results in a thick flowable paste. The standard reaction that has been used in the above examples was carried out at 3×HV water.
. Controls were the standard loading system which uses 3×HV water, particles only and terpene only reactions. Following overnight incubation samples of the mixtures were evaluated microscopically for free terpene and evidence of terpene uptake into the particles and for material flow characteristics by assessing flow in inverted tubes over 15 minutes. In addition, the presence of free oil was assessed by hydrating the reaction mixture with 5×HV, vortexing to obtain a complete dispersion of particles and centrifugation to sediment the particle encapsulated terpene. FIGS. 7 to 12 show the loading results of the following tubes: • FIG. 7—Tube 3 • FIG. 8—Tube 5 • FIG. 9—Tube 6 • FIG. 10—Tube 8 • FIG. 11—Tube 10 • FIG. 12—Tube 11

## CC(C)=CCCC(C)=CC=O [Citral, citral]
root-knot nematodes; fresh citral, 62.5 ppm, pH 4, 24 h
  % nematodes dead: 48%
root-knot nematodes; fresh citral, 62.5 ppm, pH 4, 48 h
  % nematodes dead: 50%
root-knot nematodes; fresh citral, 62.5 ppm, pH 7, 24 h
  % nematodes dead: 39%
root-knot nematodes; fresh citral, 62.5 ppm, pH 7, 48 h
  % nematodes dead: 44%
root-knot nematodes; fresh citral, 62.5 ppm, pH 10, 24 h
  % nematodes dead: 32%
root-knot nematodes; fresh citral, 62.5 ppm, pH 10, 48 h
  % nematodes dead: 45%
root-knot nematodes; fresh citral, 125 ppm, pH 4, 24 h
  % nematodes dead: 31%
root-knot nematodes; fresh citral, 125 ppm, pH 4, 48 h
  % nematodes dead: 50%
root-knot nematodes; fresh citral, 125 ppm, pH 7, 24 h
  % nematodes dead: 44%
root-knot nematodes; fresh citral, 125 ppm, pH 7, 48 h
  % nematodes dead: 47%
root-knot nematodes; fresh citral, 125 ppm, pH 10, 24 h
  % nematodes dead: 39%
root-knot nematodes; fresh citral, 125 ppm, pH 10, 48 h
  % nematodes dead: 39%
root-knot nematodes; fresh citral, 250 ppm, pH 4, 24 h
  % nematodes dead: 75%
root-knot nematodes; fresh citral, 250 ppm, pH 4, 48 h
  % nematodes dead: 73%
root-knot nematodes; fresh citral, 250 ppm, pH 7, 24 h
  % nematodes dead: 73%
root-knot nematodes; fresh citral, 250 ppm, pH 7, 48 h
  % nematodes dead: 72%
root-knot nematodes; fresh citral, 250 ppm, pH 10, 24 h
  % nematodes dead: 83%
root-knot nematodes; fresh citral, 250 ppm, pH 10, 48 h
  % nematodes dead: 87%
root-knot nematodes; one-day old citral, 62.5 ppm, pH 4, 24 h
  % nematodes dead: 40%
root-knot nematodes; one-day old citral, 62.5 ppm, pH 4, 48 h
  % nematodes dead: 27%
root-knot nematodes; one-day old citral, 62.5 ppm, pH 7, 24 h
  % nematodes dead: 30%
root-knot nematodes; one-day old citral, 62.5 ppm, pH 7, 48 h
  % nematodes dead: 27%
root-knot nematodes; one-day old citral, 62.5 ppm, pH 10, 24 h
  % nematodes dead: 16%
root-knot nematodes; one-day old citral, 62.5 ppm, pH 10, 48 h
  % nematodes dead: 21%
root-knot nematodes; one-day old citral, 125 ppm, pH 4, 24 h
  % nematodes dead: 27%
root-knot nematodes; one-day old citral, 125 ppm, pH 4, 48 h
  % nematodes dead: 31%
root-knot nematodes; one-day old citral, 125 ppm, pH 7, 24 h
  % nematodes dead: 25%
root-knot nematodes; one-day old citral, 125 ppm, pH 7, 48 h
  % nematodes dead: 33%
root-knot nematodes; one-day old citral, 125 ppm, pH 10, 24 h
  % nematodes dead: 25%
root-knot nematodes; one-day old citral, 125 ppm, pH 10, 48 h
  % nematodes dead: 32%
root-knot nematodes; one-day old citral, 250 ppm, pH 4, 24 h
  % nematodes dead: 90%
root-knot nematodes; one-day old citral, 250 ppm, pH 4, 48 h
  % nematodes dead: 90%
root-knot nematodes; one-day old citral, 250 ppm, pH 7, 24 h
  % nematodes dead: 40%
root-knot nematodes; one-day old citral, 250 ppm, pH 7, 48 h
  % nematodes dead: 33%
root-knot nematodes; one-day old citral, 250 ppm, pH 10, 24 h
  % nematodes dead: 47%
root-knot nematodes; one-day old citral, 250 ppm, pH 10, 48 h
  % nematodes dead: 52%

## L-carvone
[1]; Tube 1: terpene only control, no SAF, water 4.5 g
  Free Terpene: +
[1]; Tube 3: SAF 1 g, water 4.5 g (standard loading, 3×HV)
  Free Terpene: −
[1]; Tube 4: SAF 1 g, water —
  Free Terpene: −
[1]; Tube 5: SAF 1 g, water 0.17 g
  Free Terpene: −
[1]; Tube 6: SAF 1 g, water 0.35 g
  Free Terpene: −
[1]; Tube 7: SAF 1 g, water 0.52 g
  Free Terpene: −
  Flow: Sl
[1]; Tube 8: SAF 1 g, water 0.7 g
  Free Terpene: −
  Flow: Mod
[1]; Tube 9: SAF 1 g, water 0.87 g
  Free Terpene: −
  Flow: High
[1]; Tube 10: SAF 1 g, water 1.05 g
  Free Terpene: −
  Flow: High
[1]; Tube 11: SAF 1 g, water 1.39 g
  Free Terpene: −
  Flow: High
